Values after ≈ are worked out from the molar mass of the structure shown. Values joined by “and” are separate entries in the source; they are usually repeats but may differ in a detail not shown here. Identical values can stand only once. Each block holds one compound with its values, some of them ahead of it.
What was measured:
[1] = molecular target: EGFR (human) (UniProt P00533); conditions: sw948
[2] = molecular target: EGFR (human) (UniProt P00533); conditions: colo-205
[3] = molecular target: EGFR (human) (UniProt P00533); conditions: ccrf-cem leukemia cell
[4] = molecular target: EGFR (human) (UniProt P00533); conditions: cx-1 colon
[5] = molecular target: EGFR (human) (UniProt P00533); conditions: pc-3
[6] = molecular target: EGFR (human) (UniProt P00533); conditions: lncap
[7] = molecular target: EGFR (human) (UniProt P00533); conditions: lx1
[8] = molecular target: EGFR (human) (UniProt P00533); conditions: ccl228
[9] = molecular target: EGFR (human) (UniProt P00533); conditions: hct-15
[10] = molecular target: EGFR (human) (UniProt P00533); conditions: nfc
[11] = molecular target: EGFR (human) (UniProt P00533); conditions: a549
[12] = molecular target: EGFR (human) (UniProt P00533); conditions: a431
[13] = molecular target: EGFR (UniProt P00533)
[14] = molecular target: EGFR (human) (UniProt P00533); conditions: t-47d
[15] = molecular target: EGFR (human) (UniProt P00533); conditions: mip
[16] = molecular target: EGFR (human) (UniProt P00533); conditions: ls174t
[17] = molecular target: EGFR (human) (UniProt P00533); conditions: du145
[18] = molecular target: EGFR (human) (UniProt P00533); conditions: htb161
[19] = molecular target: EGFR (human) (UniProt P00533); conditions: hl-60
[20] = molecular target: EGFR (human) (UniProt P00533); conditions: a2780ddp
[21] = molecular target: EGFR (human) (UniProt P00533); conditions: caco2
[22] = molecular target: EGFR (human) (UniProt P00533); conditions: nhek
[23] = molecular target: EGFR (human) (UniProt P00533); conditions: a2780s
[24] = molecular target: EGFR (human) (UniProt P00533); conditions: b7474
[25] = molecular target: EGFR (UniProt P00533); remark: listed apart in the source

Chain of EGFR (P00533 whole entry, looked up): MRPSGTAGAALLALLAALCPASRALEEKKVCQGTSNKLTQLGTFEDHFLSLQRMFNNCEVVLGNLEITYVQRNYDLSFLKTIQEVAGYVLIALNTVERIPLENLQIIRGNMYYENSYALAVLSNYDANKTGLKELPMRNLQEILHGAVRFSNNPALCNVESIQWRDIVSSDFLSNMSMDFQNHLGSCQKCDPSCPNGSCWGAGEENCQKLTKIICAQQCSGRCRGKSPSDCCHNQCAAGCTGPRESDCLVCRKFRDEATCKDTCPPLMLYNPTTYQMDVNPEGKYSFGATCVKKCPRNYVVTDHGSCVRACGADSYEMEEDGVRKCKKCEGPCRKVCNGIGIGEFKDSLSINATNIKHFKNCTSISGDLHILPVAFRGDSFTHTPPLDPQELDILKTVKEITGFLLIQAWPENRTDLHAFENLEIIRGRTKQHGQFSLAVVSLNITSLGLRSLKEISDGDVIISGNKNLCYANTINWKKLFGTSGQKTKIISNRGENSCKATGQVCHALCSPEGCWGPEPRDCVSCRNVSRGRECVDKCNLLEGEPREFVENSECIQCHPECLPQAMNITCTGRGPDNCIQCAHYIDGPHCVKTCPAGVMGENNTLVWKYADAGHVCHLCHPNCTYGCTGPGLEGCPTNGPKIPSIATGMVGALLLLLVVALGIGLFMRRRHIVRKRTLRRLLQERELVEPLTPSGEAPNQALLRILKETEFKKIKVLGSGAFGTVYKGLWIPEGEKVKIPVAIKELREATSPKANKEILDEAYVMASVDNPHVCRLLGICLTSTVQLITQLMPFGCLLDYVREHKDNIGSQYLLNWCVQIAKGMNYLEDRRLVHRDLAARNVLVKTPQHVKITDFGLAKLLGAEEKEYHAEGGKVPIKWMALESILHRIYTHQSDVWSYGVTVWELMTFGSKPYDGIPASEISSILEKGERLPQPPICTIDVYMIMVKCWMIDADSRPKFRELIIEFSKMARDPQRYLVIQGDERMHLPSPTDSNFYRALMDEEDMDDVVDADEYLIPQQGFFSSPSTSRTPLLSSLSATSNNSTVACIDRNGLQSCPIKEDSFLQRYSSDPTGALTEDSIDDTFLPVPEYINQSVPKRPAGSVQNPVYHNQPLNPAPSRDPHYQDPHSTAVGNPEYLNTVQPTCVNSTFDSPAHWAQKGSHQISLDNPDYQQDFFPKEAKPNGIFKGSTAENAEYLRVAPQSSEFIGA
Chain of EGFR (human) (P00533 whole entry, looked up): as above

IC50 [1]: > 100 µg/mL | IC50 [2]: > 100 µg/mL
Structure (SMILES): N#Cc1cnc2ccc(N)cc2c1Nc1cccc(Br)c1

IC50 [3]: > 100 µg/mL | IC50 [1]: > 100 µg/mL | IC50 [4]: > 100 µg/mL | IC50 [5]: > 100 µg/mL | IC50 [6]: > 100 µg/mL | IC50 [7]: > 100 µg/mL | IC50 [8]: > 100 µg/mL | IC50 [9]: 100 µg/mL (≈ 271 µM) | IC50 [10]: > 100 µg/mL | IC50 [11]: > 100 µg/mL
Structure (SMILES): N#Cc1cnc2ccc([N+](=O)[O-])cc2c1Nc1cccc(Br)c1

IC50 [12]: 800 nM
Structure (SMILES): CCN1CCN(CC#CC(=O)Nc2ccc3ncc(C#N)c(Nc4cccc(Br)c4)c3c2)CC1

IC50 [13]: 0.008 nM
Structure (SMILES): COc1cc2ncc(C#N)c(Nc3cccc(Br)c3)c2cc1NC(=O)C#CCN(C)C

IC50 [12]: 300 nM
Structure (SMILES): COc1cc2ncc(C#N)c(Nc3cccc(Br)c3)c2cc1OC

IC50 [1]: > 100 µg/mL | IC50 [5]: > 100 µg/mL | IC50 [14]: > 100 µg/mL
Structure (SMILES): COc1cc2ncc(C#N)c(Nc3ccc(F)cc3)c2cc1OC

IC50 [12]: > 5 µg/mL
Structure (SMILES): CC(=O)Nc1cc(CN(C)C)c2ncc(C#N)c(Nc3cccc(Br)c3)c2c1

IC50 [13]: 80 nM | IC50 [12]: 0.8 µg/mL
Structure (SMILES): COC/C=C/C(=O)Nc1ccc2ncc(C#N)c(Nc3cccc(Br)c3)c2c1

IC50 [3]: > 100 µg/mL | IC50 [1]: > 100 µg/mL | IC50 [5]: > 100 µg/mL | IC50 [15]: > 100 µg/mL | IC50 [7]: > 100 µg/mL | IC50 [16]: > 100 µg/mL | IC50 [12]: 100 µg/mL | IC50 [11]: > 100 µg/mL
Structure (SMILES): COc1cc2ncc(C#N)c(Oc3cccc(Br)c3)c2cc1OC

IC50 [12]: 240 nM and 0.71 µg/mL
Structure (SMILES): COc1cc2ncc(C#N)c(Nc3cccc(Cl)c3)c2cc1OC

IC50 [12]: > 10 µg/mL
Structure (SMILES): CNC/C=C/C(=O)Nc1ccc2ncc(C#N)c(Nc3cccc(Br)c3)c2c1

IC50 [17]: 7.81 µg/mL (≈ 19.3 µM) | IC50 [18]: 7.89 µg/mL (≈ 19.5 µM) | IC50 [19]: > 100 µg/mL | IC50 [3]: > 100 µg/mL | IC50 [1]: > 100 µg/mL | IC50 [4]: 81.9 µg/mL (≈ 202 µM) | IC50 [20]: 60.4 µg/mL (≈ 149 µM) | IC50 [5]: > 100 µg/mL | IC50 [21]: 5.63 µg/mL (≈ 13.9 µM) | IC50 [22]: 9000 nM | IC50 [6]: > 33 µg/mL and 90 µg/mL | IC50 [15]: 100 µg/mL (≈ 247 µM) | IC50 [23]: 9.8 µg/mL (≈ 24.2 µM) | IC50 [7]: > 100 µg/mL | IC50 [2]: > 100 µg/mL | IC50 [24]: > 33 µg/mL and 95.7 µg/mL | IC50 [25]: 9000 nM | IC50 [16]: > 33 µg/mL and 87 µg/mL | IC50 [12]: 38.1 µg/mL | IC50 [8]: > 100 µg/mL | IC50 [9]: > 33 µg/mL and 98.9 µg/mL | IC50 [10]: > 100 µg/mL | IC50 [11]: > 100 µg/mL | IC50 [14]: > 100 µg/mL
Structure (SMILES): CC#CC(=O)Nc1ccc2ncc(C#N)c(Nc3cccc(Br)c3)c2c1

IC50 [19]: > 1 µg/mL | IC50 [3]: > 100 µg/mL | IC50 [1]: > 100 µg/mL | IC50 [15]: > 100 µg/mL | IC50 [7]: 100 µg/mL (≈ 303 µM) | IC50 [2]: > 100 µg/mL | IC50 [8]: > 100 µg/mL | IC50 [11]: 100 µg/mL (≈ 303 µM)
Structure (SMILES): COc1cc2ncc(C#N)c(Nc3cccc(C#N)c3)c2cc1OC

IC50 [13]: 10 nM | IC50 [12]: 14.3 µg/mL and 6.95 µg/mL
Structure (SMILES): COc1cc2ncc(C#N)c(Nc3cccc(SC)c3)c2cc1OC

Reference: the Kinase Knowledgebase extract (Sharma et al. 2016)
